Experimental data reported in patent US11059815B2, “Synthesis of small molecule histone deacetylase 6 degraders, compounds formed thereby, and pharmaceutical compositions containing them” (Wisconsin Alumni Research Foundation, priority 2018, dated 2021).

What was measured:
Caspase-3 and PARP = assay: Cleavage of Caspase-3 and PARP in MM1S; type: cell-based, human; details: 48 h treatment, data not shown
Protocol: Single treatment or co-treatment was performed as combined therapy (1 μM) for 72 hours in MM1S cells. […] However, the single treatment of 12d improved about 19% (P=0.0017) and 11% (P=0.0213) growth inhibition comparing with the combination sets of 13+15 (1:1) and pomalidomide+Next-A (1:1), respectively. To further confirm the observed enhancement, the anti-proliferation in response to 12d was studied from 0.3 nM to 3 μM. This single treatment was compared with dual treatment of 13 and 15 to rule out the potential complication derived from cell permeability issue. Degrader 12d lowered the bottom line (minimal proliferation) of curve over 20% although its IC50 was […] consequentially.
When the cells reached 90% confluence, they were harvested and plated 1×10^6 cells per well in 6-well plate. After overnight seeding, the cells were treated with a solution of compounds or vehicle in culture medium. The culture medium was removed after treatment and then washed twice with cold PBS. […] Protein concentration was measured by using the Pierce BCA protein assay (Thermo Fisher Scientific). […] The Immunoblot was generated by ChemiDoc MP Imaging Systems (Bio-Rad) and analyzed by Image J software (only available for download online at https://imagej.net/Downloads). […]

HDAC1 = biological target: T1, HDAC1 (Homo sapiens, UniProt Q13547); assay: Western blot of HDAC1 in MM1S cells (time course); type: cell-based; details: 100 nM
T1 construct: endogenous in cells; host or cells: MM1S
T1 sequence (Q13547 whole entry): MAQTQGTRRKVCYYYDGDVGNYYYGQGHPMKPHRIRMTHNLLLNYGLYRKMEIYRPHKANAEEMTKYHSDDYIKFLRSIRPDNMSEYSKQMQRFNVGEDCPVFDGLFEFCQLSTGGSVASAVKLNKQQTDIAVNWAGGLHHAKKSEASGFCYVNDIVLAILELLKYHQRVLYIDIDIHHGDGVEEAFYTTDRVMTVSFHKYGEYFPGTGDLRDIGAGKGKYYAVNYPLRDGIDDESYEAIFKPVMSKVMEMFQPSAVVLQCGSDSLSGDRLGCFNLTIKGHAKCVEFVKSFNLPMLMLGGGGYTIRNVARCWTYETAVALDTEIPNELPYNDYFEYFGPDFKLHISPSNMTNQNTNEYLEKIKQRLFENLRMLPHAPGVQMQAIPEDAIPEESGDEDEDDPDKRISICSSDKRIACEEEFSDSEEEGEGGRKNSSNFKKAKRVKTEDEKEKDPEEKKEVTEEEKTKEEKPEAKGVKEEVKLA
Protocol: FIGS. 12A, 12B, and 12C are a series of western blots showing that degrader 12d selectively promotes HDAC6 degradation in MM1S cells.
To probe the efficiency of 12d, MM1S was treated with 100 nM 12d and the change of HDAC6 protein level was monitored by time. The HDAC6 degradation started around 1 h and reached maximal degradation effect at 4 h. The degradation of IKZFs was only observed after 4 h. Meanwhile, HDAC1 was not affected and the acetylation of tubulin was accumulated by time. To study the re-synthesis rate of HDAC6 after degradation, “wash-out” experiments were performed (data not shown). Cells were treated with 100 nM 12d for 6 h and then washed with PBS to remove remaining degraders. HDAC6 expression was monitored for 48 h. […] Selected degraders were also tested in other cell lines and they are effective among all tested cancer cell lines.
When the cells reached 90% confluence, they were harvested and plated 1×10^6 cells per well in 6-well plate. After overnight seeding, the cells were treated with a solution of compounds or vehicle in culture medium. […] Protein concentration was measured by using the Pierce BCA protein assay (Thermo Fisher Scientific). […] The Immunoblot was generated by ChemiDoc MP Imaging Systems (Bio-Rad) and analyzed by Image J software (only available for download online at https://imagej.net/Downloads). […]

## CCCCN(Cc1ccc(C(=O)NO)cc1)C(=O)Nc1ccc(OCCCCCn2cc(CNc3cccc4c3C(=O)N(C3CCC(=O)NC3=O)C4=O)nn2)cc1 (centres unmarked) [Compound 12d, 4-((1-butyl-3-(4-((5-(4-(((2-(2,6-dioxopiperidin-3-yl)-1,3-dioxoisoindolin-4-yl)amino)methyl)-1H-1,2,3-triazol-1-yl)pentyl)oxy)phenyl)ureido)methyl)-N-hydroxybenzamide]
Caspase-3 and PARP
  cleavages of Caspase-3 and PARP: dose-dependent
HDAC1
  effect on HDAC1: not affected
